The values that follow come from patent US11186547B2, “High-purity quinoline derivative and method for manufacturing same” (Eisai R&D Management Co., Ltd., priority 2014, dated 2021).

For series [1] the following is noted: Workplace Safety Site, Public Notice No. 166 of Mar. 27, 2012; cited from earlier work.
Series [2] is described as follows: decomposition on heating after dissolution in a solvent. The following applies: heated after dissolved in a solvent. It is filed as physicochemical.
Series [3] is described as follows: genotoxicity, consideration of the present inventors. The following applies: according to the consideration of the present inventors. The text has this:
(§1) The compound (A-1) is the starting material of the step A, but its solubility in organic solvents is low.

Series [4] in a line: solubility in organic solvents. It is filed as physicochemical.
Description: as §1

On to `COc1cc2nccc(Oc3ccc(N)c(Cl)c3)c2cc1C(N)=O` [compound (I), 4-(4-Amino-3-chlorophenoxy)-7-methoxy-quinoline-6-carboxamide], for which the mutagenicity entry in series [1] is given as “strong mutagenicity was recognized”.

Turning to `COc1cc2nccc(Oc3ccc(NC(=O)NC4CC4)c(Cl)c3)c2cc1C(N)=O` [methanesulfonate of the compound (IV), 4-[3-chloro-4-(cyclopropylaminocarbonyl)aminophenoxy]-7-methoxy-6-quinoline-carboxamide Methanesulfonate], the decomposition product formed entry in series [2] is “the compound (I) is formed as a decomposition product”. For the compound `COc1cc2nccc(Cl)c2cc1C(N)=O` [compound (A-1), 4-chloro-7-methoxy-quinoline-6-carboxamide], in series [3], the genotoxicity result is listed as “possibility that the compound (A-1) exhibits genotoxicity”. Further, the “solubility in organic solvents” value in series [4] is “low”.
